{
  "source": "paper PMC10287555",
  "about": "“Camonsertib in DNA damage response-deficient advanced solid tumors: phase 1 trial results” (Nature Medicine, 2023)",
  "experiment": "Dose-limiting toxicities (DLTs), TRESR phase 1 module 1",
  "assay_type": "in vivo",
  "description": "The starting dose of camonsertib was 5 mg administered on a 5-d-on, 2-d-off (5/2) schedule given once daily (QD) in 21-d cycles. Dose escalation proceeded until a total daily dose of 160 mg was achieved. Per protocol, based on emerging safety, PK and PD data, an alternative schedule of 3 d on, 4 d off (3/4) was then started at a daily dose of 120 mg and escalated to 200 mg, and 160 mg QD (3/4) of camonsertib was proposed as the preliminary RP2D based on long-term (>6 weeks) safety, tolerability, PK and PD data. The dose-limiting toxicity (DLT) rate at the proposed preliminary RP2D was 8% (2/25). All DLTs comprised hematologic toxicities (Table 2).\nPatients were treated with single-agent camonsertib at doses ranging from 5–160 mg QD to 40–80 mg twice daily, administered orally on a 5/2 or 3/4 weekly schedule. An intermittent schedule of 2 weeks on/1 week off was also evaluated at dose levels of 160 mg and 200 mg QD (3/4). Each cycle comprised 21 d of treatment. Module 1 dose-escalation decisions based on patients in M1a and M1b cohorts were governed by the Bayesian optimal interval (BOIN) design starting with single-patient cohorts in M1a. […] Escalation of M1a and M1b occurred in parallel until the maximum tolerated dose (MTD) […] RP2D was determined for each schedule. Backfill cohorts were employed to (1) aid in the assessment of possible anti-tumor activity in a subset of patients with a specific gene abnormality or tumor type; (2) allow additional PK/PD evaluation; and (3) further assess drug-related toxicities. Patient safety review and dose decisions were carried out by a Safety Review Committee, comprised of the study investigators and sponsor representatives.\nAll safety and efficacy endpoints were summarized with descriptive statistics. Safety data were summarized using the safety population, which consisted of all patients who received at least one dose of RP-3500. The DLT rate was based on the DLT-evaluable population, which included those patients in dose-escalation cohorts (M1a and M1b only) receiving ≥80% of planned doses of camonsertib, who completed all required safety evaluations and were observed through the end of cycle 1 or patients who experienced a DLT. Due to the different number of dose levels expected and the exploratory nature of the phase 1 study, anti-tumor activity parameters were primarily based on patients who received ≥1 dose of RP-3500 and had ≥1 post-baseline tumor assessment by RECIST 1.1 and/or GCIG CA-125 or PCWG3 PSA criteria, with an initial dose level of >100 mg d^−1 (dose level predicted to achieve efficacious exposure), as defined in the statistical analysis plan. Additional subgroups based on tumor types or genotypes of interest were based on this efficacy analysis set. […] Patients were, therefore, enrolled in the study and endpoints assessed regardless of sex, gender and race. No formal statistical tests were performed in this study. However, nominal P values (two-sided) were provided for the hypothesis-generating purpose of selected exploratory endpoints, without adjusting for multiplicity. A log-rank test was used in between-group comparisons for the time-to-event endpoints (PFS and DOT), and Fisher’s exact test was used in between-group comparisons for the binary endpoints (CBR, MR, etc.).",
  "key": {"[1]": {"conditions": "3/4 schedule, 60 mg BID (n = 3)"}, "[2]": {"conditions": "3/4 schedule, 120 mg QD (n = 17)"}, "[3]": {"conditions": "3/4 schedule, 160 mg QD (n = 25)"}, "[4]": {"conditions": "3/4 schedule, 2/1w, 160 mg QD (n = 25)"}, "[5]": {"conditions": "3/4 schedule, 2/1w, 200 mg QD (n = 5)"}, "[6]": {"conditions": "5/2 schedule, 40 mg BID (n = 1)"}, "[7]": {"conditions": "5/2 schedule, 100 mg QD (n = 4)"}, "[8]": {"conditions": "5/2 schedule, 120 mg QD (n = 4)"}, "[9]": {"conditions": "5/2 schedule, 160 mg QD (n = 3)"}, "[10]": {"conditions": "5/2 schedule, 5–80 mg QD (n = 5)"}},
  "data": [
    {"smiles": "C[C@@H]1COCCN1c1cc([C@]2(O)C[C@H]3CC[C@@H](C2)O3)c2cnn(-c3cc[nH]n3)c2n1", "note": "[camonsertib]", "values": [
      {"measurement": "DLT rate at the proposed preliminary RP2D", "setting": "160 mg QD (3/4), 2/25", "value": 8, "unit": "%"},
      {"measurement": "Any DLT event", "setting": "[1]", "value": "1 (33.3) n (%)"},
      {"measurement": "DLT: Anemia", "setting": "[1]", "value": "1 (33.3) n (%)"},
      {"measurement": "DLT: Febrile neutropenia", "setting": "[1]", "value": "0 n (%)"},
      {"measurement": "DLT: Neutrophil count decreased", "setting": "[1]", "value": "0 n (%)"},
      {"measurement": "DLT: Platelet count decreased", "setting": "[1]", "value": "0 n (%)"},
      {"measurement": "Any DLT event", "setting": "[2]", "value": "1 (5.9) n (%)"},
      {"measurement": "DLT: Anemia", "setting": "[2]", "value": "1 (5.9) n (%)"},
      {"measurement": "DLT: Febrile neutropenia", "setting": "[2]", "value": "0 n (%)"},
      {"measurement": "DLT: Neutrophil count decreased", "setting": "[2]", "value": "0 n (%)"},
      {"measurement": "DLT: Platelet count decreased", "setting": "[2]", "value": "0 n (%)"},
      {"measurement": "Any DLT event", "setting": "[3]", "value": "2 (8.0) n (%)"},
      {"measurement": "DLT: Anemia", "setting": "[3]", "value": "2 (8.0) n (%)"},
      {"measurement": "DLT: Febrile neutropenia", "setting": "[3]", "value": "0 n (%)"},
      {"measurement": "DLT: Neutrophil count decreased", "setting": "[3]", "value": "0 n (%)"},
      {"measurement": "DLT: Platelet count decreased", "setting": "[3]", "value": "0 n (%)"},
      {"measurement": "Any DLT event", "setting": "[4]", "value": "2 (8.0) n (%)"},
      {"measurement": "DLT: Anemia", "setting": "[4]", "value": "1 (4.0) n (%)"},
      {"measurement": "DLT: Febrile neutropenia", "setting": "[4]", "value": "0 n (%)"},
      {"measurement": "DLT: Neutrophil count decreased", "setting": "[4]", "value": "1 (4.0) n (%)"},
      {"measurement": "DLT: Platelet count decreased", "setting": "[4]", "value": "0 n (%)"},
      {"measurement": "Any DLT event", "setting": "[5]", "value": "1 (20.0) n (%)"},
      {"measurement": "DLT: Anemia", "setting": "[5]", "value": "1 (20.0) n (%)"},
      {"measurement": "DLT: Febrile neutropenia", "setting": "[5]", "value": "1 (20.0) n (%)"},
      {"measurement": "DLT: Neutrophil count decreased", "setting": "[5]", "value": "0 n (%)"},
      {"measurement": "DLT: Platelet count decreased", "setting": "[5]", "value": "1 (20.0) n (%)"},
      {"measurement": "Any DLT event", "setting": "[6]", "value": "0 n (%)"},
      {"measurement": "DLT: Anemia", "setting": "[6]", "value": "0 n (%)"},
      {"measurement": "DLT: Febrile neutropenia", "setting": "[6]", "value": "0 n (%)"},
      {"measurement": "DLT: Neutrophil count decreased", "setting": "[6]", "value": "0 n (%)"},
      {"measurement": "DLT: Platelet count decreased", "setting": "[6]", "value": "0 n (%)"},
      {"measurement": "Any DLT event", "setting": "[7]", "value": "2 (50.0) n (%)"},
      {"measurement": "DLT: Anemia", "setting": "[7]", "value": "1 (25.0) n (%)"},
      {"measurement": "DLT: Febrile neutropenia", "setting": "[7]", "value": "0 n (%)"},
      {"measurement": "DLT: Neutrophil count decreased", "setting": "[7]", "value": "0 n (%)"},
      {"measurement": "DLT: Platelet count decreased", "setting": "[7]", "value": "1 (25.0) n (%)"},
      {"measurement": "Any DLT event", "setting": "[8]", "value": "0 n (%)"},
      {"measurement": "DLT: Anemia", "setting": "[8]", "value": "0 n (%)"},
      {"measurement": "DLT: Febrile neutropenia", "setting": "[8]", "value": "0 n (%)"},
      {"measurement": "DLT: Neutrophil count decreased", "setting": "[8]", "value": "0 n (%)"},
      {"measurement": "DLT: Platelet count decreased", "setting": "[8]", "value": "0 n (%)"},
      {"measurement": "Any DLT event", "setting": "[9]", "value": "0 n (%)"},
      {"measurement": "DLT: Anemia", "setting": "[9]", "value": "0 n (%)"},
      {"measurement": "DLT: Febrile neutropenia", "setting": "[9]", "value": "0 n (%)"},
      {"measurement": "DLT: Neutrophil count decreased", "setting": "[9]", "value": "0 n (%)"},
      {"measurement": "DLT: Platelet count decreased", "setting": "[9]", "value": "0 n (%)"},
      {"measurement": "Any DLT event", "setting": "[10]", "value": "0 n (%)"},
      {"measurement": "DLT: Anemia", "setting": "[10]", "value": "0 n (%)"},
      {"measurement": "DLT: Febrile neutropenia", "setting": "[10]", "value": "0 n (%)"},
      {"measurement": "DLT: Neutrophil count decreased", "setting": "[10]", "value": "0 n (%)"},
      {"measurement": "DLT: Platelet count decreased", "setting": "[10]", "value": "0 n (%)"},
      {"measurement": "Preliminary recommended phase 2 dose (RP2D)", "setting": "QD, 3 d on/4 d off (weekly on days 1–3)", "value": 160, "unit": "mg"},
      {"measurement": "Any DLT event", "setting": "Total DLT evaluable (n = 92)", "value": "9 (9.8) n (%)"},
      {"measurement": "DLT: Anemia", "setting": "Total DLT evaluable (n = 92)", "value": "7 (7.6) n (%)"},
      {"measurement": "DLT: Febrile neutropenia", "setting": "Total DLT evaluable (n = 92)", "value": "1 (1.1) n (%)"},
      {"measurement": "DLT: Neutrophil count decreased", "setting": "Total DLT evaluable (n = 92)", "value": "1 (1.1) n (%)"},
      {"measurement": "DLT: Platelet count decreased", "setting": "Total DLT evaluable (n = 92)", "value": "2 (2.2) n (%)"}
    ]}
  ]
}
